Test results as given in patent publication US8906694B2, “Organometallic fluorescent sensors for nitric oxide detection and imaging” (The Florida International University Board of Trustees, priority 2012, dated 2014).

What was measured:
[1] = Fluorescence spectroscopy NO sensing in solution after addition of NO donor MAHMA-NONOate; conditions: NO donor MAHMA-NONOate in buffer solution; aerobic and anaerobic conditions for the THF complex
Protocol: A pilot Re(I)-phenanthroline complex: Re(phen)(CO)2(THF)(CF3SO3) complex was synthesized from Re(phen)(CO)3(CF3SO3) (Scheme 3) by photochemical substitution of a CO with THF in situ and was tested for NO sensing by fluorescence spectroscopy after the addition of the NO donor: MAHMA-NONOate (Cayman Pharmaceuticals) at the are 10 μM-200 μM range (FIGS. 1 and 2). […] It is worth mentioning the dye is highly sensitive to NO, since it is only used at a concentration of only 10 μM, and responds to concentrations of NO donor in the μM level as well (FIG. 5). […] Furthermore live cell experiments with Re(phen)(CO)2(THF)(CF3SO3) prepared by thermal substitution gave similar results.
A stepwise experimental protocol for preparation and testing of the Rhenium organometallic sensor and comparison with existing technology is as follows: • 1) Preparation of a stock solution of a 2.0 mM NO donor solution by dissolving 0.6 mg of (Z)-1-[N-Methyl-N-[6-(N-methylammoniohexyl)amino]]diazen-1-ium-1,2-diolate (Methylamine hexamethylene methylamine NONOate or MAHMA NONOate) in 0.01 M NaOH. Solution is kept at 4° C. until use. • 2) Preparation of a 1.0 mM stock solution of probe LRe(CO)3(OSO2CF3) in DMSO or THF (L is phen or substituted analog). For the Re probe the solution is undergoing the following steps: […]

[2] = test system: Rat Aortic Endothelial Cells; assay: Fluorescence microscopy NO imaging in living cells with NO donor addition; type: cell-based; conditions: for absorptivity of the dye into the cells: living cells, fluorescence microscopy
Source text: Rat Aortic Endothelial Cells acquired from Cell Biologics were used for the cell based experiments. Fetal Bovine Serum (FBS) and DMSO were bought from ATCC. Penicillin-Streptomycin and endothelial cell growth supplement from bovine neural tissue were bought from Sigma Aldrich. DMEM/F-12 medium, PBS and Trypsin (0.05% EDTA) were bought from Invitrogen. Cell culture flasks and dishes were bought from Fisher Scientific. MAHMA/NO was bought from Cayman Chemicals.
Cell culture: Rat Aortic Endothelial Cells were grown (passage 4-10) in DMEM/F-12 medium supplemented with 10% FBS, 1% penicillin-streptomycin, and endothelial cell growth supplement in a humidified tissue culture incubator at 37° C. equilibrated with 95% air/5% CO2. For experimentation, cells were cultured in 35×10 mm dishes seeded with 2×10^5 cells and used at 60-80% confluency.
After the loading phase with the organometallic Re-complex (10 μM for 45 min) cells were rinsed off excess dye using PBS buffer solution. This was followed by an exposure to 10 μM MAHMA/NO for 10-15 minutes. Images were then acquired with a fluorescence microscope (Olympus IX 81 fitted with a CCD camera (Qimaging) at 350 nm (excitation) and 450 nm (emission) with 20× zoom, with exposition time of 2668 ms. The data were analyzed with IPLAB software (BioVision Technologies).
Conditions of incubator: 37° C., 21% O2, 5% CO2, with cell culture harvested and plated for at least 24 hours.
[…] of Re(phen)(THF)(CO)2(CF3SO3) or Re(phen)(CO)2(PPh3)(CF3SO3) (1.6×10^−3 M) was prepared in THF. 62.5 μL of this solution was added to 138 μL of acetone. This new solution was added to 800 μL of 10 mM PBS (Phosphate Buffer Saline) buffer solution, resulting in v/v ratios of 6% THF, 14% acetone, and 80% Buffer. This new solution was further diluted 1/10 with PBS Buffer before added to the cells, resulting to final solvent composition of 0.6% THF, 1.4% acetone, and 98% v/v aqueous buffer. This final solution contains the organometallic Re dye at 10 μM concentration, (solution A) before contact with NO donor solutions.
A blank (0 μM NO donor: MAHMA NONOate) and 3 stock solutions (100 μM, 500 μM, 1 mM) MAHMA NONOate were prepared in NaOH 0.01M, which after addition to the media result to final NO donor concentrations of 0 μM, 1 μM, 5 μM, 10 μM.
The old media were poured out from the plates. The plates were rinsed 2 times with 1 mL PBS 10 mM. The next reagents were added to each plate in the following order: […] of DMEM/FBS/Penicillin Media, […] of PBS 10 mM, and 100 μL of Re complex stock in 20% organic mixture. The plates were incubated for 75 minutes.
The reactive media was poured out from the plate. The plates were rinsed 2 times with 1 mL PBS 10 mM. […]

Structure (SMILES)	fluorescent response to NO donor addition in solution [1]	toxicity to the cells ([2]; at the 10 μM level)	absorptivity of the dye into the cells ([2]; dye 10 μM)	fluorescence response to NO donor addition in living cells ([2]; dye 10 μM, MAHMA-NONOate 0-10 μM, λexc=350 nm, λem=450 nm)
O=[C]=[Re]1(=[C]=O)([O]S(=O)(=O)C(F)(F)F)([PH](c2ccccc2)(c2ccccc2)c2ccccc2)[N]2C=CC=c3ccc4c(c32)[N]1C=CC=4 [Re(phen)(CO)2(PPh3)(CF3SO3)]	shows response to NO addition	no toxicity	good dye absorptivity into cells	–
C1CCOC1.O=[C]=[Re]1(=[C]=O)([O]S(=O)(=O)C(F)(F)F)[N]2C=CC=c3ccc4c(c32)[N]1C=CC=4 [Re(phen)(CO)2(THF)(CF3SO3)]	responds directly to NO	–	good absorptivity	direct response
